Data as given in patent US10350272B2, “Calcitonin analogues for treating diseases and disorders” (KeyBioscience AG, priority 2015, dated 2019).
“Also recorded” adds a separate entry of the source.

Legend:
[1] = system: obese rats; assay: 16-day treatment study in obese rats (bodyweight, food intake, fat depots, liver lipid analysis); type: in vivo, rat; conditions: 16 days; for liver arachidonic acid / liver free fatty acids / liver triacylglycerols: extracted liver tissue, 7.5 μg/kg/day
Procedure: Two studies were conducted, and in both studies the obese rats used were generated as follows:
(§1) To obtain obese rats, male Sprague-Dawley rats aged 12 weeks were placed on a diet consisting of regular rodent chow and a 60 kcal % high-fat diet (no. D12495; Research Diets) for a total of 12 wk. Following the 12 weeks on high fat diet the rats were randomized into treatment groups based on weight.
The initial study was a 16-day treatment study, in which three groups were studied: Lean (same age but no high fat diet), vehicle (obese control group), and KBP-042 at 7.5 μg/kg/day. Throughout the experiment the bodyweight and food intake were monitored, and at termination liver and fat depots were collected for weighing and potential analysis of triglyceride, free fatty acids and arachidonic acid content.
As the quantification procedure contains several steps an internal standard was added to each sample extraction, which enables the results to be normalized and correcting for any loss. The internal standard was prepared as a solution containing 3.66 mg/mL C19:0 TAG (Sigma-Aldrich, product number: T4632), 2.73 mg/mL C17:0 Phospholipid (PL), 0.4 mg/mL C19:0 FFA (Sigma-Aldrich, product number: N-8263), 0.096 mg/mL C15:0 Diacylglycerol (DAG), 0.06 mg/mL d31-tagged Ceramide, 0.03 mg/mL d7-tagged Sphingosine, 1.036 mg/mL Sitostanol, 0.04 mg/mL d31-tagged Sphingomyelin and 1.596 mg/mL C15:0 Cholesterolester in Chloroform:Methanol 2:1 (v/v).
(§2) The method is based on Folch et al. At the time of extraction the samples were portioned at 500 mg individually and transferred to glass tubes, followed by the addition of 10 mL 100 μg/mL butylated hydroxytoluene (BHT) in chloroform:methanol 2:1 (v:v), and placed on ice. Each sample was added 150 μL of the internal standard solution. Homogenization was performed using a rotor-stator submersion blender (IKA Ultra-Turrax T25) with the sample tubes submerged in ice-water. The samples were each homogenized for 3×10 seconds with 50 second intervals, where after the homogenate is transferred to 35 mL screw-cap centrifuge tubes. The aggregate was cleaned in 5 mL chloroform:methanol 2:1 in the original glass tube, which was then transferred quantitatively to the homogenate. The homogenate was added 3 mL (0.24 times the total homogenate volume) of 0.73% (w/v) NaCl in MiliQ H2O and mixed, followed by centrifugation at 2800·g for 5 minutes at 4° C., to create a 2-phase system. The lower phase was transferred to a clean 12.5 mL centrifugation tube. The homogenate (the upper phase) was then added 3 mL chloroform:methanol 85:15 and mixed, followed by another centrifugation step. The new lower phase was then isolated and added to the first extract and dried down under nitrogen in a 40° C. water bath, followed by resolubilization in 300 μL chloroform:methanol 2:1. At this point the lipid extracts can be stored at −20° C.
The lipid extracts were fractionated on amino-propyl columns (Phenomenex Strata NH2, product number: 8B-S009-HBJ). The columns were pre-washed with 2×2 mL chloroform:methanol 23:1 (v:v) and left to dry. During fractionation the columns were not allowed to dry. The columns were primed with 2×1 mL hexane followed by application of the lipid extracts. Fraction 1 containing cholesterol esters was eluted with 3 mL Hexane into a clean tube. Fraction 2 containing TAG was eluted using 3 mL hexane:chloroform:ethylacetate 100:5:5 (v:v:v) into a clean tube. Fraction 3 containing DAG, Cholesterol and Ceramide was eluted using 3×2 mL chloroform:methanol 23:1 (v:v) into a new glass. Fraction 4 containing FFA was eluted using 5 mL 2% acetic acid in diethyl ether into a new glass. Fraction 5 containing PL was eluted using 4 mL methanol into a new glass. Fractions 1 and 2 were dried down under nitrogen at 40° C. and re-dissolved in 300 μL chloroform:methanol 95:5 and stored at −20° C. […]

[2] = system: high fat diet (HFD) rats; assay: 8-week (56 day) treatment study in high fat diet rats with pair-fed controls (body weight, food intake, adipose tissue, liver TAG, adipokines); type: in vivo, rat; conditions: for liver triglyceride / triacylglycerol content: 8 weeks, all dose groups; for body weight: HFD rats, 0.625-10 μg/kg/day, 8 weeks (56 days), vs vehicle and pair-fed
Procedure: as §1
The second study consisted of the following groups: vehicle, KBP-042 0.625 μg/kg/day, KBP-042 1.25 μg/kg/day, KBP-042 2.5 μg/kg/day, KBP-042 5 μg/kg/day, KBP-042 10 μg/kg/day, pair-fed (calorie restriction) matching the 5 μg/kg/day and pair-fed (calorie restriction) matching the 10 μg/kg/day, to allow assessment of the effect of KBP-042 on bodyweight independent of its effect on food intake.
Throughout the experiment the bodyweight and food intake were monitored, and at termination liver and fat depots were collected for weighing and potential analysis of triglyceride content.
as §2
The lipid extracts were fractionated on amino-propyl columns (Phenomenex Strata NH2, product number: 8B-S009-HBJ). The columns were pre-washed with 2×2 mL chloroform:methanol 23:1 (v:v) and left to dry. During fractionation the columns were not allowed to dry. The columns were primed with 2×1 mL hexane followed by application of the lipid extracts. Fraction 1 containing cholesterol esters was eluted with 3 mL Hexane into a clean tube. Fraction 2 containing TAG was eluted using 3 mL hexane:chloroform:ethylacetate 100:5:5 (v:v:v) into a clean tube. Fraction 3 containing DAG, Cholesterol and Ceramide was eluted using 3×2 mL chloroform:methanol 23:1 (v:v) into a new glass. Fraction 4 containing FFA was eluted using 5 mL 2% acetic acid in diethyl ether into a new glass. Fraction 5 containing PL was eluted using 4 mL methanol into a new glass. Fractions 1 and 2 were dried down under nitrogen at 40° C. and re-dissolved in 300 μL chloroform:methanol 95:5 and stored at −20° C. Fraction 4 and half of fraction 5 (fraction 5A) were dried down under nitrogen at 40° C. and re-dissolved in 300 μL chloroform:methanol 2:1 and stored at −20° C. Fraction 3 was equally dried down and re-dissolved in 135 μL chloroform and 67.5 μL isopropanol, transferred to HPLC vials and stored at −20° C. The other half of fraction (fraction 5B) was dried down under nitrogen and re-dissolved in 200 μL chloroform:isopropanol 1:1 (v:v), transferred to HPLC vials and stored at −20° C.
To allow gas chromatographic analysis of the fatty acids they must be converted to the more volatile Fatty Acid Methyl Ester (FAME) form. […]

[3] = KBP-042 7.5 μg/kg/day, vs saline

AcCSNLSTCVLGKLSQELHKLQTYPRTDVGANAP-NH2 (Ac-CSNLSTCVLGKLSQELHKLQTYPRTDVGANAP-NH2; not fully specified (bridges); cysteine pairing not given here) [KBP-042, calcitonin mimetic with Cys1-Cys7 disulphide bridge]
fat depots (epididymal visceral fat) ([1]; KBP-042 7.5 μg/kg/day, at termination): fats depots were reduced | body weight [1, 3]: marked weight reduction | food intake [1, 3]: pronounced reduction in food intake early | liver arachidonic acid [1]: reduced the levels | liver free fatty acids [1]: reduced | liver triacylglycerols [1]: reduced triacylglycerols | liver arachidonic acid ([1]; listed as KBP-peptide): improvement | liver free fatty acids ([1]; listed as KBP-peptide): improvement | liver triacylglycerols ([1]; listed as KBP-peptide): improvement | plasma adiponectin levels ([2]; 1.25 μg/kg, 2.5 μg/kg, 5 μg/kg and 10 μg/kg, 56 days): significantly increased | body weight at day 56 ([2]; 2.5 μg/kg, 5 μg/kg and 10 μg/kg groups compared to HFD-vehicle): significantly lower | food efficiency ([2]; 2.5 μg/kg, 5 μg/kg and 10 μg/kg, 56 days, calculated from food intake and body weight change, significantly different from pair-fed controls): drastic reduction | plasma leptin levels ([2]; 10 μg/kg compared to the corresponding pair-fed control, 56 days): reached statistical significance | liver triacylglycerols (TAG) ([2]; 10 μg/kg, 56 days, vs HFD-Vehicle, pair-fed control not significant): significantly reduced | weight of isolated epididymal white adipose tissue ([2]; 10 μg/kg, 56 days, vs HFD-vehicle): significantly reduced | weight of isolated perirenal white adipose tissue ([2]; 2.5, 5 and 10 μg/kg, 56 days, vs HFD-vehicle, not seen in pair-fed controls): significant reduction in size | perirenal fat depot ([2]; 8-week study, compared to vehicle, even in a pair fed experiment): reduced | liver triglyceride / triacylglycerol content ([2]; compared to vehicle): trends indicated a dose-dependent effect | liver triglyceride / triacylglycerol content ([2]; compared to vehicle, listed as KBP peptide): reduced | liver triglyceride / triacylglycerol content ([2]; compared to vehicle, listed as KBP-peptide): improvement | fatty acid composition of hepatic TAG ([2]; 56 days): no differences in the relative distribution | weight of inguinal white adipose tissue ([2]; 56 days): trend towards reducing | plasma leptin levels ([2]; 56 days, all doses): trend towards reduced levels | body weight [2]: dose-dependent and sustained reduction of body weight; also recorded: large reduction in body weight and maintained weight loss for 8 weeks | body weight ([2]; listed as KBP-peptide): marked weight reduction even when compared to the calorie restricted groups | food intake ([2]; first 6 days of treatment, 2.5, 5 and 10 μg/kg, transient): large reduction in food intake
